These results are taken from publication PMC7662321, “Andrographolide and Its 14-Aryloxy Analogues Inhibit Zika and Dengue Virus Infection” (Molecules, 2020).

One experiment relates to ZIKV. The experiment is described as follows: Percentage of ZIKV infection of A549 cells by flow cytometry. In kind it is cell-based, Zika virus. Particulars: A549, MOI 5, 10 and 25 µM, 24 h, vs vehicle. As to the method:
To confirm the effects of andrographolide and the andrographolide analogues on ZIKV infection, A549 cells were infected with ZIKV at MOI of 5 for 2 h, and subsequently treated with the compounds at concentrations of 10 and 25 μM or with vehicle for 24 h. The cells were harvested for determination of the percentage of infection by flow cytometry, while the supernatants were collected for determination of viral titer by standard plaque assay.
HEK293T/17 or A549 cells were cultured in six-well plates under standard conditions until the cells reached 80% confluence. HEK293T/17 cells were infected with DENV 2, while A549 cells were infected with ZIKV Thai strain at MOI 5 for 2 h at 37 °C and 5% CO2 in culture medium without FBS. Mock infection was undertaken in parallel. After the infection period, the medium was removed and replaced with complete medium (including FBS) containing 0.1% DMSO (no treatment control) or the appropriate concentration of each compound and cells were again incubated under standard conditions. At 24 h post-treatment, cells were harvested for determination of effects of compounds on percentage of infection and supernatant was collected for determination of viral productivity. All experiments were undertaken independently in triplicate with duplicate plaque assay.
Mock- or viral-infected cells (with or without compound treatment) were harvested at an appropriate time point then incubated with 10% normal goat serum (NGS; Gibco Invitrogen) in PBS-immunofluorescence assay (IFA) buffer on ice for 30 min. The cells were washed with 800 µL of 1% BSA/PBS-IFA and fixed with 200 µL of 4% paraformaldehyde in PBS-IFA at room temperature in the dark for 20 min. After washing with 800 µL of 1% BSA/PBS-IFA, cells were permeabilized with 200 µL of 0.2% Triton X-100 in PBS-IFA for 10 min at room temperature in the dark. Subsequently, the cells were washed with 800 µL of 1% BSA/PBS-IFA followed by overnight incubation with 50 µL of primary antibody (1:150 dilution of pan-specific anti-dengue virus E protein antibody HB114 for DENV and 1:2 dilution of anti-flavivirus antibody HB112 for ZIKV). After washing twice with 800 µL of 1% BSA/PBS-IFA, the cells were incubated with 50 µL of a goat anti-mouse IgG conjugated with fluorescein isothiocyanate (FITC; KPL, Guilford, UK) diluted 1:40 with 1% BSA/PBS-IFA at room temperature in the dark for 1 h. The cells were washed twice with 800 µL of 1% BSA/PBS-IFA and resuspended in 100 µL of PBS-IFA. The fluorescence signal was analyzed by flow cytometry on a BD FACalibur cytometer (Becton Dickinson, BD Biosciences, San Jose, CA, USA) using CellQuest™ software (Version 6). All experiments were undertaken independently in triplicate. All raw flow cytometry data plots are provided in Supplementary Figures S13–S19.

Experiment [1] has as its system HSPA1A. As to the kind of experiment: 2D-PAGE proteomic analysis of treated A549 cells, HSPA1A spot. In kind it is cell-based, human. Particulars: A549, 25 µM, 24 h. How it is done:
(§1) A549 cells were therefore treated with either vehicle (0.025% DMSO), or with 25 μM of andrographolide or ZAD-1, and at 24 h post-treatment, proteins were prepared and subjected to two-dimension polyacrylamide gel electrophoresis (2D-PAGE). The experiment was undertaken independently in triplicate and representative gels are shown Figure 5, with all replicates being shown in Supplementary Figure S12. […] All of these protein spots were cut from the gels and then subjected to in-gel tryptic digestion followed by mass spectrometry. MASCOT (Matrix Science Inc., Boston, MA, USA) search of the resultant masses identified 4 proteins (Table 3), namely heat shock protein 70 kDa 1A (HSPA1A), phosphoglycerate kinase 1 (PGK1), transketolase (TKT) and nuclear transport protein of GTP-binding nuclear protein Ran (Ran).
(§2) 2D-PAGE and mass spectroscopic identification of differentially expressed spots was undertaken essentially as previously described. […] Image data were analyzed using Image Master™ 2D Platinum software version 7.0 (GenBio, Geneva, Switzerland). Each spot was evaluated on intensity, volume and area. […] After tryptic in-gel digestion, peptide masses were determined by LC-MS/MS using SYNAPT high definition MS (HDMS) (Waters Corp., Milford, MA, USA).

For a further experiment, the system named is TKT. The experiment is described as follows: 2D-PAGE proteomic analysis of treated A549 cells, TKT spot. In kind it is cell-based, human. Particulars: A549, 25 µM, 24 h. As to the method: as §1, §2
Experiment [2] relates to HSPA1A. The experiment is described as follows: Western blot of HSPA1A expression in treated A549 cells. In kind it is cell-based, human. Particulars: A549, 25 µM, 24 h, normalized to GAPDH. How it is done:
To confirm the 2D-gel analysis results, HSPA1A and PGK1 were selected for the validation by Western blot. The same three experimental conditions were established, namely A549 cells treated with vehicle (0.025% DMSO), 25 μM andrographolide or 25 μM ZAD-1. Glyceraldehyde-3-phosphate dehydrogenase (GAPDH) was used as a loading control and the proteins were normalized to this protein. […] While the difference in HSPA1A expression between andrographolide treatment and ZAD-1 treatment is consistent with the spot intensity data (Table 3), the spot density for the control DMSO treatment is not consistent with the western blot result.
A total of 40 µg of proteins were separated by electrophoresis through a 12% sodium dodecyl sulfate (SDS) polyacrylamide gel and transferred to a nitrocellulose membrane by electroblotting. The membranes were blocked with 5% skim milk in TBS-T (20 mM Tris, 140 mM NaCl and 0.1% Tween-20) at room temperature for 1 h with shaking. […] The signal of specific protein bands was detected using the Luminata Forte Western HRP Substrate (Millipore Corp., Burlington, MA, USA) and recorded by film autoradiography. […]

As for `C=C1CC[C@@H]2[C@](C)(CO)[C@H](O)CC[C@@]2(C)[C@@H]1C/C=C1/C(=O)OC[C@H]1O` [Andrographolide], in the experiment on ZIKV, the “number of ZIKV-infected cells (percentage of infection)” value is recorded as “significantly reduced”. For the same molecule, the “Intensity Level, spot 1 HSPA1A” value in the experiment with HSPA1A [1] was 2410.2. The “Intensity Level, spot 2 TKT” value in the experiment with TKT is recorded as 1452.51. For the same molecule, in the experiment with HSPA1A [2], the “HSPA1A expression compared with the vehicle control” value is recorded as “significantly increased”.
In the same order, the values of `C=C1CC[C@@H]2[C@]3(C)COC(C)(C)O[C@@H]3CC[C@@]2(C)[C@@H]1C/C=C1/C(=O)OC[C@@H]1Oc1c(Cl)cc(Cl)c2ccc(C)nc12` [ZAD-1] are “significantly reduced”, 1279.25, 523.514 and “no significant difference from control”.
